According to patent US20090188497A1, “MEDICAL PRODUCT CONTAINING TIOTROPIUM” (Boehringer Ingelheim International GmbH, priority 2003, published 2009):

Experiment: In-use stability test of FPD, capsules in opened blister at 40° C. and 75% Rh (tests S3-S5)
Format: physicochemical
Conditions: conclusion of the tests on SPIRIVA
Source text: SPIRIVA® powder formulation in bulk and SPIRIVA® capsules from our local pharmacy were introduced to the laboratory together with the […]®. The laboratory was set up to perform in-vitro tests according to European Pharmacopoeia (EP) and US Pharmacopoeia (USP) using two Andersen cascade impactors. All analytical work where then performed according to standardized methods for Physical Tests and Determinations for Aerosols, metered-dose inhalers and dry powder inhalers described in pharmacopoeias (e.g. USP 2002<601>) using a state of the art High Performance Liquid Chromatograph (HPLC) system.
(§1) From the blister holding 5 capsules one capsule was withdrawn and the remaining 4 capsules were put 4 days into 40° C. and 75% Rh. The blister containing the 4 capsules was then put in an exicator for 2 h before tests were performed. The test was performed with 4 kPa pressure drop over the […]® at room temperature and laboratory ambient conditions.
as §1, with “put 13” for “put 4”, “conditions. […]” for “conditions.”

For C[N+]1(C)[C@@H]2C[C@@H](OC(=O)C(O)(c3cccs3)c3cccs3)C[C@H]1[C@@H]1O[C@@H]12 [tiotropium], the sensitivity to moisture was “extremely sensitive to moisture”.
